The values that follow come from PubChem BioAssay AID216 (DTP/NCI, 2004).

Values joined by “and” are separate entries in the source; they are usually repeats but may differ in a detail not shown here. Equal entries are not always repeated. Inconclusive results and toxic doses are left out.

The assay concerns BDF1 mice, P288 leukemia ip, survival T/C. Description: NCI In Vivo Anticancer Drug Screen. Data for tumor model P288 Lymphocytic Leukemia (intraperitoneal) in B6D2F1 (BDF1) mice. The following applies: endpoint: survival time, mean or median, higher = longer survival. How it is done: The antitumor activity of compounds was measured in mice bearing transplantable tumors. Survival or tumor size were measured and the results are expressed as the measurement made in the treated group (T) divided by the measurement made in the vehicle treated control group (C). The tumor model used in this assay is P288 Lymphocytic Leukemia (intraperitoneal) in B6D2F1 (BDF1) mice

The mark [1] stands for this setting: dose: 8.0 mg/kg/injection, schedule: Q01DX010 (ip), vehicle: saline.
Setting [2] is: dose: 25.0 mg/kg/injection, schedule: Q01DX010 (ip), vehicle: saline.
Where [3] appears, read: dose: 50.0 mg/kg/injection, schedule: Q01DX010 (ip), vehicle: saline.
Setting [4] is: dose: 100.0 mg/kg/injection, schedule: Q01DX010 (ip), vehicle: saline.
The mark [5] stands for this setting: dose: 200.0 mg/kg/injection, schedule: Q01DX010 (ip), vehicle: saline.
The mark [6] stands for this setting: dose: 10.0 mg/kg/injection, schedule: Q01DX010 (ip), vehicle: saline.
The mark [7] stands for this setting: dose: 20.0 mg/kg/injection, schedule: Q01DX010 (ip), vehicle: saline.
Setting [8] is: dose: 40.0 mg/kg/injection, schedule: Q01DX010 (ip), vehicle: saline.
Setting [9] is: dose: 6.25 mg/kg/injection, schedule: Q01DX Z (ip), vehicle: carboxymethylcellulose (CMC).
[10] abbreviates: dose: 12.5 mg/kg/injection, schedule: Q01DX Z (ip), vehicle: carboxymethylcellulose (CMC).
Where [11] appears, read: dose: 25.0 mg/kg/injection, schedule: Q01DX Z (ip), vehicle: carboxymethylcellulose (CMC).
Where [12] appears, read: dose: 50.0 mg/kg/injection, schedule: Q01DX Z (ip), vehicle: carboxymethylcellulose (CMC).
[13] abbreviates: dose: 100.0 mg/kg/injection, schedule: Q01DX Z (ip), vehicle: carboxymethylcellulose (CMC).
The mark [14] stands for this setting: dose: 0.5 mg/kg/injection, schedule: Q01DX010 (ip), vehicle: saline.
Setting [15] is: dose: 1.0 mg/kg/injection, schedule: Q01DX010 (ip), vehicle: saline.
The mark [16] stands for this setting: dose: 2.0 mg/kg/injection, schedule: Q01DX010 (ip), vehicle: saline.
The mark [17] stands for this setting: dose: 4.0 mg/kg/injection, schedule: Q01DX010 (ip), vehicle: saline.

Regarding `c1ccc(CNc2ncnc3[nH]ncc23)cc1`, the T/C reads like this: (dose: 1.95 mg/kg/injection, schedule: Q01DX Z (ip), vehicle: carboxymethylcellulose (CMC)) 91 % of control; (dose: 3.9 mg/kg/injection, schedule: Q01DX Z (ip), vehicle: carboxymethylcellulose (CMC)) 97 % of control; (dose: 7.8 mg/kg/injection, schedule: Q01DX Z (ip), vehicle: carboxymethylcellulose (CMC)) 90 % of control; under setting [1], 121 % of control and 93 % of control; (dose: 16.0 mg/kg/injection, schedule: Q01DX010 (ip), vehicle: saline) 112 % of control and 114 % of control; (dose: 32.0 mg/kg/injection, schedule: Q01DX010 (ip), vehicle: saline) 118 % of control.

Turning to `Nc1c(I)cc(I)cc1C(=O)O`, the T/C reads like this: under setting [2], 100 % of control; under setting [3], 112 % of control and 100 % of control; under setting [4], 112 % of control and 100 % of control; under setting [5], 100 % of control; (dose: 400.0 mg/kg/injection, schedule: Q01DX010 (ip), vehicle: saline) 106 % of control.

As to `O=C(Nc1ccc(C2=NCCN2)cc1)c1ccc(C(=O)Nc2ccc(C3=NCCN3)cc2)c([N+](=O)[O-])c1`, the T/C was 155 % of control and 175 % of control (dose: 6.0 mg/kg/injection, schedule: Q01DX010 (ip), vehicle: saline); 188 % of control and 262 % of control under setting [1]; 333 % of control and 375 % of control (dose: 12.0 mg/kg/injection, schedule: Q01DX010 (ip), vehicle: saline); 187 % of control (dose: 18.0 mg/kg/injection, schedule: Q01DX010 (ip), vehicle: saline).

`C[C@@H]1C[C@@H]([C@H](O)CC2CC(=O)NC(=O)C2)C(=O)[C@@H](C)C1`: the T/C is 94 % of control under setting [6]; 94 % of control (dose: 12.5 mg/kg/injection, schedule: Q01DX Z (ip), vehicle: water); 94 % of control under setting [7]; 98 % of control (dose: 25.0 mg/kg/injection, schedule: Q01DX Z (ip), vehicle: water); 105 % of control under setting [8].

For the molecule `C[C@]12CCC(=O)C=C1CC[C@H]1[C@@H]3CC[C@](O)(C(=O)CO)[C@@]3(C)C[C@H](O)[C@@]12F`, the T/C is 97 % of control (dose: 0.45 mg/kg/injection, schedule: Q01DX Z (sc), vehicle: steriod suspending solution); 98 % of control (dose: 0.9 mg/kg/injection, schedule: Q01DX Z (sc), vehicle: steriod suspending solution); 110 % of control and 97 % of control (dose: 1.8 mg/kg/injection, schedule: Q01DX Z (sc), vehicle: steriod suspending solution); 106 % of control (dose: 3.75 mg/kg/injection, schedule: Q01DX Z (sc), vehicle: steriod suspending solution); 108 % of control (dose: 7.5 mg/kg/injection, schedule: Q01DX Z (sc), vehicle: steriod suspending solution); 106 % of control (dose: 15.0 mg/kg/injection, schedule: Q01DX Z (sc), vehicle: steriod suspending solution). In addition, the T/C (dose: 30.0 mg/kg/injection, schedule: Q01DX Z (sc), vehicle: steriod suspending solution) is 108 % of control; the T/C (dose: 60.0 mg/kg/injection, schedule: Q01DX Z (sc), vehicle: steriod suspending solution) was 102 % of control; the T/C (dose: 120.0 mg/kg/injection, schedule: Q01DX Z (sc), vehicle: steriod suspending solution) was 105 % of control.

Regarding `C[C@H](N)C(=O)N[C@@H]1[C@H]2C(=C(O)C[C@@H](O)[C@@H]2O)C(=O)O[C@@H]1C`, the T/C was 112 % of control (dose: 150.0 mg/kg/injection, schedule: Q01DX010 (ip), vehicle: saline); 156 % of control (dose: 300.0 mg/kg/injection, schedule: Q01DX010 (ip), vehicle: saline); 212 % of control (dose: 600.0 mg/kg/injection, schedule: Q01DX010 (ip), vehicle: saline).

For `CSc1ncnc2nc[nH]c12`, the T/C under setting [9] is 105 % of control; the T/C under setting [10] is 101 % of control; the T/C under setting [2] was 90 % of control; the T/C under setting [11] was 101 % of control; the T/C under setting [3] is 86 % of control and 90 % of control; the T/C under setting [12] was 113 % of control and 88 % of control. The T/C reads like this: under setting [4], 100 % of control; under setting [5], 90 % of control and 100 % of control.

In the case of `Cn1cnc([N+](=O)[O-])c1Sc1ncnc2nc[nH]c12`, the T/C is 104 % of control under setting [10], 112 % of control under setting [11], 114 % of control under setting [12] and 98 % of control under setting [13].

As to `N=[N+]=CC(=O)OCC(N)C(=O)O` (stereo not given), the T/C was 94 % of control (dose: 3.13 mg/kg/injection, schedule: Q01DX010 (ip), vehicle: saline); 105 % of control (dose: 6.25 mg/kg/injection, schedule: Q01DX010 (ip), vehicle: saline); 100 % of control (dose: 12.5 mg/kg/injection, schedule: Q01DX010 (ip), vehicle: saline).

As for `CN(C)c1ccc(/C=C/c2ccnc3ccccc23)cc1`, the T/C (dose: 0.2 mg/kg/injection, schedule: Q01DX Z (ip), vehicle: water) is 117 % of control; the T/C (dose: 0.8 mg/kg/injection, schedule: Q01DX Z (ip), vehicle: water) is 98 % of control; the T/C (dose: 1.6 mg/kg/injection, schedule: Q01DX Z (ip), vehicle: water) is 92 % of control; the T/C (dose: 3.1 mg/kg/injection, schedule: Q01DX Z (ip), vehicle: water) is 91 % of control; the T/C (dose: 5.0 mg/kg/injection, schedule: Q01DX010 (ip), vehicle: saline) was 88 % of control; the T/C under setting [9] is 108 % of control. The T/C was 87 % of control (dose: 6.3 mg/kg/injection, schedule: Q01DX Z (ip), vehicle: water); 88 % of control and 90 % of control under setting [6]; 108 % of control under setting [10]; 88 % of control under setting [7]; 114 % of control under setting [11]; 88 % of control and 90 % of control under setting [8]. The T/C under setting [12] is 111 % of control.

With `Nc1nc(F)nc2c1ncn2C1OC(CO)C(O)C1O` (stereo not given), the T/C under setting [14] is 111 % of control; the T/C under setting [15] was 100 % of control; the T/C under setting [16] was 88 % of control; the T/C under setting [17] was 88 % of control; the T/C (dose: 125.0 micrograms/kg/injection, schedule: Q01DX010 (ip), vehicle: saline) is 88 % of control; the T/C (dose: 500.0 micrograms/kg/injection, schedule: Q01DX010 (ip), vehicle: saline) was 111 % of control. Also, under “dose: 1000.0 micrograms/kg/injection, schedule: Q01DX010 (ip), vehicle: saline”, the T/C is 116 % of control.

In the case of `CN(C)c1ccc(Nc2c3ccccc3nc3ccccc23)cc1`, the T/C under setting [9] is 115 % of control; the T/C under setting [10] was 105 % of control; the T/C under setting [11] is 112 % of control; the T/C (dose: 36.0 mg/kg/injection, schedule: Q01DX010 (ip), vehicle: saline) is 100 % of control; the T/C under setting [12] was 123 % of control and 98 % of control; the T/C (dose: 54.0 mg/kg/injection, schedule: Q01DX010 (ip), vehicle: saline) is 111 % of control. Further, the T/C is, setting by setting: under setting [13], 117 % of control; (dose: 120.0 mg/kg/injection, schedule: Q01DX010 (ip), vehicle: saline) 88 % of control; (dose: 200.0 mg/kg/injection, schedule: Q01DX Z (ip), vehicle: carboxymethylcellulose (CMC)) 92 % of control.

In the case of `CN1CC[C@]23c4c5ccc(O)c4O[C@H]2C(=O)CC[C@H]3[C@H]1C5`, the T/C was 106 % of control under setting [14], 118 % of control under setting [15], 106 % of control under setting [16] and 100 % of control under setting [17].
